≈ marks a conversion by molar mass, not a printed value.
System: not listed separately
Experiment: Aqueous (kinetic) solubility assay in PBS pH 7.4
Type: physicochemical
Settings: phosphate-buffered saline, 25 °C, pH 7.4, aqueous buffer, kinetic from dmso stock, PBS pH 7.4, 2% DMSO, two hours, assay range 2-200 μM, read-out: PBS solubility, pH 7.4, μM Exp1
Description: Aqueous solubility assay: Using a 10 mM stock solution of the compound in 100% DMSO, dilutions were prepared to a theoretical concentration of 200 μM in duplicates in phosphate-buffered saline pH 7.4 with 2% final DMSO. In parallel, compound dilutions in 50% acetonitrile/PBS were prepared to theoretical concentrations of 0 μM (blank), 50 μM, 100 μM and 200 μM with 2% final DMSO to generate calibration curves. The experimental compound dilutions in PBS were further allowed to equilibrate at 25° C. on a thermostatic orbital shaker for two hours and then centrifuged at 14000 rpm, 5 min and filtered through HTS filter plates using a vacuum manifold. The supernatants of test compounds were diluted 2-fold with acetonitrile contained 4% DMSO before measuring. Ondansetron was used as reference compound to control proper assay performance. 200 μl of samples were transferred to 96-well plate and measured in 200-550 nm range with 5 nm step. The effective range of this assay is approximately 2-200 μM and the compounds returning values close to the upper limit of the range may have higher actual solubility (e.g. 5 ? deoxy-5-fluorouddine).

| SMILES | solubility at 2 h [µM] |
| --- | --- |
| CC1CCCC(C)N1CCNC(=O)c1ccc(C(=O)Nc2ccccc2N)nc1 (stereo not drawn) [Compound 1011] | 207 (≈ 81.9 µg/mL) |
| Nc1ccccc1NC(=O)c1ccc(C(=O)NCC2CCN2C2CCCC2)cn1 (stereo not drawn) [Compound 1015] | 210 (≈ 82.6 µg/mL) |
| Nc1ccccc1NC(=O)c1ccc(C(=O)NCCN2CCC3(CCCCC3)CC2)cc1 [Compound 1020] | 200 (≈ 86.9 µg/mL) |

Same assay, conditions: phosphate-buffered saline, 25 °C, pH 7.4, aqueous buffer, kinetic from dmso stock, PBS pH 7.4, 2% DMSO, two hours, assay range 2-200 μM, read-out: PBS solubility, pH 7.4, μM Exp2

| SMILES | solubility at 2 h [µM] |
| --- | --- |
| CC1CCCC(C)N1CCNC(=O)c1ccc(C(=O)Nc2ccccc2N)nc1 (stereo not drawn) [Compound 1011] | 207 (≈ 81.9 µg/mL) |
| Nc1ccccc1NC(=O)c1ccc(C(=O)NCC2CCN2C2CCCC2)cn1 (stereo not drawn) [Compound 1015] | 211 (≈ 83 µg/mL) |
| Nc1ccccc1NC(=O)c1ccc(C(=O)NCCN2CCC3(CCCCC3)CC2)cc1 [Compound 1020] | 205 (≈ 89.1 µg/mL) |

Same assay, conditions: phosphate-buffered saline, 25 °C, pH 7.4, aqueous buffer, kinetic from dmso stock, PBS pH 7.4, 2% DMSO, two hours, assay range 2-200 μM, read-out: PBS solubility, pH 7.4, μM Mean

| SMILES | solubility at 2 h [µM] |
| --- | --- |
| CC1CCCC(C)N1CCNC(=O)c1ccc(C(=O)Nc2ccccc2N)nc1 (stereo not drawn) [Compound 1011] | ≥ 200 |
| Nc1ccccc1NC(=O)c1ccc(C(=O)NCC2CCN2C2CCCC2)cn1 (stereo not drawn) [Compound 1015] | ≥ 200 |
| Nc1ccccc1NC(=O)c1ccc(C(=O)NCCN2CCC3(CCCCC3)CC2)cc1 [Compound 1020] | ≥ 200 |

System: not listed separately
Experiment: Metabolic stability in mouse liver microsomes
Type: in vitro ADME
Settings: 2 μM, five time points over 40 min, NADPH
Description: Metabolic stability of several compounds (1009, 1011, 1015, 1020, and 1056) and 2 reference compounds (propranolol and imipramine) were determined in mouse liver microsomes at five time points over 40 min using HPLC-MS. Metabolic stability is defined as the percentage of parent compound lost over time in the presence of a metabolically active test system.
Metabolic stability in mouse liver microsomes: Mouse hepatic microsomes were isolated from pooled, perfused livers of Balb/c male mice according to the standard protocol. The batch of microsomes was tested for quality control using Imipramine, Propranolol and Verapamil as reference compounds. Microsomal incubations were carried out in 96-well plates in 5 aliquots of 40 μL each (one for each time point). Liver microsomal incubation medium contained PBS (100 mM, pH 7.4), MgCl2 (3.3 mM), NADPH (3 mM), glucose-6-phosphate (5.3 mM), glucose-6-phosphate dehydrogenase (0.67 units/ml) with 0.42 mg of liver microsomal protein per ml. Control incubations were performed replacing the NADPH-cofactor system with PBS. Test compound (2 μM, final solvent concentration 1.6%) was incubated with microsomes at 37° C., shaking at 100 rpm. Incubations were performed in duplicates. Five time points over 40 minutes had been analyzed. The reactions were stopped by adding 12 volumes of 90% acetonitrile-water to incubation aliquots, followed by protein sedimentation by centrifuging at 5500 rpm for 3 minutes. […]. Supernatants were analyzed using the HPLC system coupled with tandem mass spectrometer.
The elimination constant (kel), half-life (t1/2) and intrinsic clearance (Clint) were determined in plot of […] versus time, using linear regression analysis: […]

| SMILES | stability in mouse hepatic microsomal system |
| --- | --- |
| CC1CCCC(C)N1CCNC(=O)c1ccc(C(=O)Nc2ccccc2N)nc1 (stereo not drawn) [Compound 1011] | good stability |
| Nc1ccccc1NC(=O)c1ccc(C(=O)NCC2CCN2C2CCCC2)cn1 (stereo not drawn) [Compound 1015] | good stability |
| Nc1ccccc1NC(=O)c1ccc(C(=O)NCCN2CCC3(CCCCC3)CC2)cc1 [Compound 1020] | unstable |

System: LRP6
Experiment: Wnt reporter assay in HEK293 cells after LRP6 siRNA knockdown
Type: cell-based, human
Settings: CI-994 16 μM, 1011, 1015, 1023 1 μM, 24 h
Description: (A) structures of niciosamide and CI-994; (B) HEK293 cells were transfected with Super8XTOPFlash and β galactosidase vectors along with Wnt3A or control vector. After 24 hours incubation, cells were treated with CI-994 at the indicated concentration for 24 hr. The luciferase activity was then measured and normalized to the activity of the β-galactosidase. (C) HT1080 cells stably transduced LRP6 with HA tag were treated with niciosamide and CI-994 at the indicated concentrations for 24 h. The levels of HA-LRP6 were examined by Western blot with anti-HA antibody. (D) Western blots showing the depletion of LRP6 after 2 days of transiently transfection of 50 nM LRP6 siRNA in HEK293 cells. ON-TARGETplus double-stranded siRNA oligomers against human LRP6 and non-specific scrambled siRNA control (Stealth RNAi™ siRNA Negative Control, Med GC) were purchased from Thermo Scientific. siRNA LRP6-1, siRNA LRP6-2 and control siRNA were Thermo Scientific catalog numbers J-003845-09, J-003845-11 and 12935300, respectively. (E) HEK293 cells were transfected with LRP6 siRNAs, and after 8 h incubation were further transfected with Super8XTOPFlash construct and β galactosidase-expressing vector. After 24 h incubation, the cells were treated with CI-994 (16 μM) for 24 h. The luciferase activity was then measured and normalized to β-galactosidase activity. All the values are the average of triplicate determinations with the SD values indicated by error bars. **P<0.01 versus corresponding control value.
(A) HT1080 cells stably transduced with human LRP6 with HA tag were treated with niciosamide (1 μM) and other compounds as noted (1 μM) for 24 hr. The levels of HA-LRP6 were examined by Western blots with anti-HA antibody. All samples were also probed with anti-actin antibody to verify equal loading. This experiment is a representative of two such experiments performed with similar data. (B) N2a cells were treated with 1015 and 1011 at the indicated concentrations for 24 h. The expression levels of LRP6, β-catenin and actin were examined by Western blotting. This experiment is a representative of three such experiments performed with similar data. (C) HEK293 cells were transfected with LRP6 siRNAs, and after 8 h incubation were further transfected with Super8XTOPFlash construct and β galactosidase-expressing vector. ON-TARGETplus double-stranded siRNA oligomers against human LRP6 and non-specific scrambled siRNA control (Stealth RNAi™ siRNA Negative Control, Med GC) were purchased from Thermo Scientific. siRNA LRP6-1, siRNA LRP6-2 and control siRNA were Thermo Scientific catalog numbers J-003845-09, J-003845-11 and 12935300, respectively. […] The luciferase activity was then measured and normalized to β-galactosidase activity. […]

| SMILES | effect of knockdown of LRP6 expression on the compound's effect on Wnt/β-catenin signaling |
| --- | --- |
| CC1CCCC(C)N1CCNC(=O)c1ccc(C(=O)Nc2ccccc2N)nc1 (stereo not drawn) [Compound 1011] | significantly attenuated |
| Nc1ccccc1NC(=O)c1ccc(C(=O)NCC2CCN2C2CCCC2)cn1 (stereo not drawn) [Compound 1015] | significantly attenuated |
| CC(=O)Nc1ccc(C(=O)Nc2ccccc2N)cc1 [CI-994, 4-(acetylamino)-N-(2-aminophenyl)benzamide, reference compound] | significantly attenuated |

Reference: patent US20220267271A1, “WNT ACTIVATORS AND METHODS OF USE” (MAYO FOUNDATION FOR MEDICAL EDUCATION AND RESEARCH, priority 2019, published 2022)
